# Test results reported in paper PMC10254193, “Early Molecular Insights into Thanatin Analogues Binding to A. baumannii LptA” (Molecules, 2023).
# Bridge positions count the residues as written; N and C are the ends. Square brackets hold non-standard residues; d marks the D form. Peptide text beside a SMILES is read from it. Hyp = O=C(O)[C@@H]1C[C@@H](O)CN1; Pen = CC(C)(S)[C@H](N)C(=O)O; dDab = NCC[C@@H](N)C(=O)O; Nle = CCCC[C@H](N)C(=O)O; Dab = NCC[C@H](N)C(=O)O
# B1: A. baumannii LptAm2.0 (LptAm(Ab)2.0) (domain or fragment)
# chain: GLPSDRNQQISLVADRATYNEKTGLTTYTGNVVIEQGTMKLQADSIVATLNSKREIQTITAKGRPSKFQQQISADKGIARGEGQTIVYNADTGIITLSGGAYLYQDGSSIRGNTLKYSMNKGDVEAQG
# B2: Thanatin (peptide)
# peptide: GSKKPVPIIYCNRRTGKCQRM
# notes: thanatin, the naturally occurring 21-mer; positions 1′-21′; also called native thanatin
# How the values were obtained:
# E. coli ATCC 25922 = assay type: cell-based
# Text: Table 1 LptA sequence identity to E. coli and MIC values (µg/mL). | column: E. coli ATCC 25922
# K. pneumoniae ATCC 43816 = assay type: cell-based
# Text: Table 1 LptA sequence identity to E. coli and MIC values (µg/mL). | column: K. pneumoniae ATCC 43816
# P. aeruginosa ATCC 27853 = assay type: cell-based
# Text: Table 1 LptA sequence identity to E. coli and MIC values (µg/mL). | column: P. aeruginosa ATCC 27853
# A. baumannii DSM 30008 = assay type: cell-based
# Text: Table 1 LptA sequence identity to E. coli and MIC values (µg/mL). | column: A. baumannii DSM 30008
# LptAm(Ab)2.0 [1] = experiment: Fluorescence polarization direct binding assay; design: species or system A. baumannii; details: direct FP, than-FL 5 µM, LptAm(Ab)2.0 serial dilution, FP buffer 50 mM NaPi pH 7, 150 mM NaCl, 0.05% Tween20, overnight 4 °C, read at 25 °C, triplicate; read-out: KD ± 95CI
# Text: As previously mentioned, a second A. baumannii LptA protein construct (LptAm(Ab)2.0), truncated at G159 of the C-terminus had improved monomeric behavior in solution and was used for binding affinity assays. The protein underwent routine checks for purity via a Coomassie-stained SDS-PAGE (Figure S1), and its binding to 7 in a titration series was observed using analytical SEC (Figure 2B), before proceeding with fluorescence polarization (FP). The fluorescent label, Alexa647, was conjugated to thanatin at the first position, as described in [24]. […]
# Protein stocks were purified and concentrated in SEC buffer (50 mM NaPi pH 7, 150 mM NaCl), and if necessary diluted to the desired concentration using FP buffer (50 mM NaPi pH 7, 150 mM NaCl, 0.05% Tween20). […] Plates were left to incubate overnight at 4 °C before fluorescence polarization (FP) measurements. Anisotropy was measured using the Tecan Safire^2 plate reader using a 10 nm bandwidth and setting the excitation and emission wavelengths to 635 nm and 670 nm, respectively. The G-factor (G) was also determined empirically as 1.094 for the instrument and included in all the anisotropy calculations.
# For direct binding assays, fluorescence anisotropy (r) was calculated using the parallel and perpendicular polarized intensities using the equation r=I∥−I⊥∗G/I∥+2I⊥∗G . […]
# LptAm(Ab)2.0 [2] = experiment: Fluorescence polarization competition (indirect) binding assay, displacement of than-FL; design: species or system A. baumannii; details: competition FP, than-FL 10 µM, triplicate; for IC50: 1:1 LptAm(Ab)2.0 and than-FL, FP buffer pH 7, overnight 4 °C, read at 25 °C, read-out: IC50 ± 95CI; for Ki: from IC50 and KD of than-FL by Cheng–Prusoff equation, read-out: KI ± 95CI
# Protocol: The dissociation constant (KD) of than-FL was first determined in a direct binding assay and measured as 3.7 ± 0.5 µM (Figure 5, left) (Table 3). Subsequently, competitive binding assays were performed to determine the inhibition constants (KIs) of the unlabeled thanatin derivatives 1, 2, 5, 6, and 7. For each thanatin derivative tested, a serial dilution was prepared in triplicate on a single 96-well plate, to which a 1:1 mixture of LptAm(Ab)2.0 and than-FL was added. […] Determination of the KIs was achieved from the empirically derived IC50 values and KD of than-FL using the Cheng–Prusoff equation [27].
# Protein stocks were purified and concentrated in SEC buffer (50 mM NaPi pH 7, 150 mM NaCl), and if necessary diluted to the desired concentration using FP buffer (50 mM NaPi pH 7, 150 mM NaCl, 0.05% Tween20). Peptide stocks and fluorescently labeled peptide stocks were made in FP buffer. A 1:1 serial dilution of 24 wells was prepared first by adding 100 µL of the unlabeled protein (e.g., LptAm(Ab)2.0) or peptide (e.g., 1, 2, 5–7), starting at high concentrations, 100–500 µM, in well one. Then, 50 µL was taken from the first well and added to 50 µL of FP buffer in the subsequent well, homogenized and repeated for the remaining of the 24-well series. Then, 50 µL of 2x stock of the fluorescently labeled thanatin (than-FL) was added to the dilution series. For the direct binding assays, 10 µM than-FL was used as the 2x stock, and for the indirect binding assays, a 1:1 mixture of 20 µM Lpt protein variant and 20 µM than-FL was used as the 2x stock; the final working concentrations of the than-FL were 5 µM and 10 µM, respectively. Plates were left to incubate overnight at 4 °C before fluorescence polarization (FP) measurements. Anisotropy was measured using the Tecan Safire^2 plate reader using a 10 nm bandwidth and setting the excitation and emission wavelengths to 635 nm and 670 nm, respectively. The G-factor (G) was also determined empirically as 1.094 for the instrument and included in all the anisotropy calculations.
# For the indirect binding assays, r was calculated in the same manner as the direct binding assays. To control for non-specific binding between than-FL and competitors, than-FL alone was added to a replicate dilution series of the unlabeled peptide on the same plate. The control was subtracted from r to yield r’. Data were fit to a sigmoidal interpolation model on GraphPad Prism 9, and an IC50 was generated for each unlabeled peptide or protein measured. The inhibition constants (Kis) were calculated using the Cheng–Prusoff equation, Ki=IC50×1+LT/KD^−1 , in which the total concentration of than-FL (LT) was used as well as the KD previously derived from the peptide’s cognate direct binding assay.
# [3] = target: than-FL (fluorescently labeled thanatin, Alexa647); experiment: fluorescence polarisation; direct binding: LptAm(Ab)2.0 serially diluted, than-FL 5 µM; 50 mM NaPi pH 7, 150 mM NaCl, 0.05% Tween20; incubated overnight at 4 °C, executed at ambient temperature (25 °C); One site - Total fit
# [4] = target: T1, A. baumannii LptAm2.0 (LptAm(Ab)2.0) (A. baumannii ATCC 17978, UniProt V5VEZ9 33-159); experiment: fluorescence polarisation; competition: unlabeled peptide serially diluted, 1:1 mixture of LptAm(Ab)2.0 and than-FL added (than-FL 10 µM final); 50 mM NaPi pH 7, 150 mM NaCl, 0.05% Tween20; KI from IC50 by the Cheng-Prusoff equation; details: both partners purified
# T1 construct: LptA of A. baumannii ATCC 17978, L33 to G159: as LptAm(Ab)1.0 with a further 5-residue truncation at the C-terminus; source: E. coli BL21(DE3), purified (two-step NiNTA with TEV cleavage); not shown: GB1 (protein G B1 domain), N-terminal, cleaved; His tag, N-terminal, cleaved
# T1 sequence: B1 chain
molecule,measurement,setting,value
CCCC[C@H](NC(=O)[C@H](CCCNC(=N)N)NC(=O)[C@H](CCN)NC(=O)[C@@H]1CSSC[C@H](NC(=O)[C@H](Cc2ccc(O)cc2)NC(=O)[C@@H](NC(=O)[C@@H](NC(=O)[C@@H]2CCCN2C(=O)[C@@H](NC(=O)[C@@H]2CCCN2C(=O)[C@H](CCCCN)NC(=O)[C@@H](N)CCCCN)C(C)C)[C@@H](C)CC)[C@@H](C)CC)C(=O)N[C@@H](CC(N)=O)C(=O)N[C@@H](CCCNC(=N)N)C(=O)N[C@@H](CCCNC(=N)N)C(=O)N[C@@H]([C@@H](C)O)C(=O)NCC(=O)N[C@@H](CCCCN)C(=O)N1)C(=O)O [Peptide 1] (H-KKPVPIIYCNRRTGKC[Dab]R[Nle]-OH; disulfide 9-16),MIC,E. coli ATCC 25922,0.063 µg/mL
same,MIC,K. pneumoniae ATCC 43816,0.250 µg/mL
same,MIC,P. aeruginosa ATCC 27853,>64 µg/mL
same,MIC,A. baumannii DSM 30008,>32 µg/mL
"Than-FL: fluorescently labeled thanatin, Alexa647 conjugated at the first position; reporter in all FP assays",Kd,LptAm(Ab)2.0 [1],3.7 ± 0.5 µM
CC[C@H](C)[C@H](NC(=O)[C@@H](NC(=O)[C@@H]1CCCN1C(=O)[C@@H](NC(=O)[C@@H]1CCCN1C(=O)[C@H](CCCCN)NC(=O)[C@@H](N)CCCCN)C(C)C)[C@@H](C)CC)C(=O)N[C@@H](Cc1ccc(O)cc1)C(=O)N[C@@H]1C(=O)N[C@@H](CC(N)=O)C(=O)N[C@@H](CCCNC(=N)N)C(=O)N[C@@H](CCN)C(=O)N[C@@H]([C@@H](C)O)C(=O)N[C@H](CCN)C(=O)N[C@@H](CCCCN)C(=O)N[C@H](C(=O)N[C@@H](CCN)C(=O)N[C@@H](CCCNC(=N)N)C(=O)N[C@@H](Cc2ccc(O)cc2)C(=O)O)CSSC1(C)C [Peptide 2] (H-KKPVPIIY[Pen]NR[Dab]T[dDab]KC[Dab]RY-OH; disulfide 9-16; N-terminus and C-terminus assumed),MIC,E. coli ATCC 25922,0.031 µg/mL
same,MIC,K. pneumoniae ATCC 43816,0.125 µg/mL
same,MIC,P. aeruginosa ATCC 27853,>32 µg/mL
same,MIC,A. baumannii DSM 30008,>32 µg/mL
same,IC50,LptAm(Ab)2.0 [2],24.1 ± 6.3 µM
same,Ki,LptAm(Ab)2.0 [2],6.5 ± 1.7 µM
CC[C@H](C)[C@H](NC(=O)[C@@H](NC(=O)[C@@H]1C[C@@H](O)CN1C(=O)[C@@H](N)C(C)C)[C@@H](C)CC)C(=O)N[C@@H](Cc1ccc(O)cc1)C(=O)N[C@@H]1C(=O)N[C@@H](CC(N)=O)C(=O)N[C@@H](CCCNC(=N)N)C(=O)N[C@@H](CCN)C(=O)N[C@@H]([C@@H](C)O)C(=O)N[C@H](CCN)C(=O)N[C@@H](CCCCN)C(=O)N[C@H](C(=O)N[C@@H](CCN)C(=O)N[C@@H](CCN)C(=O)N[C@@H](Cc2ccc(O)cc2)C(=O)O)CSSC1(C)C [Peptide 5] (H-V[Hyp]IIY[Pen]NR[Dab]T[dDab]KC[Dab][Dab]Y-OH; disulfide 6-13; N-terminus and C-terminus assumed),MIC,E. coli ATCC 25922,0.063 µg/mL
same,MIC,K. pneumoniae ATCC 43816,0.250 µg/mL
same,MIC,P. aeruginosa ATCC 27853,>32 µg/mL
same,MIC,A. baumannii DSM 30008,>32 µg/mL
same,IC50,LptAm(Ab)2.0 [2],11.5 ± 0.7 µM
same,Ki,LptAm(Ab)2.0 [2],3.1 ± 0.2 µM
CC[C@H](C)[C@H](NC(=O)[C@@H]1C[C@@H](O)CN1C(=O)[C@@H](N)C(C)C)C(=O)N[C@H](C(=O)N[C@@H](Cc1ccc(O)cc1)C(=O)N[C@@H]1C(=O)N[C@@H](CC(N)=O)C(=O)N[C@@H](CCCNC(=N)N)C(=O)N[C@@H](CCN)C(=O)N[C@@H]([C@@H](C)O)C(=O)N[C@H](CCN)C(=O)N[C@@H](CCCCN)C(=O)N[C@H](C(=O)N[C@@H](CCN)C(=O)N[C@@H](CCCNC(=N)N)C(=O)N[C@@H](Cc2ccc(O)cc2)C(=O)O)CSSC1(C)C)[C@@H](C)O [Peptide 6] (H-V[Hyp]ITY[Pen]NR[Dab]T[dDab]KC[Dab]RY-OH; disulfide 6-13; N-terminus and C-terminus assumed),MIC,E. coli ATCC 25922,0.125 µg/mL
same,MIC,K. pneumoniae ATCC 43816,0.250 µg/mL
same,MIC,P. aeruginosa ATCC 27853,>32 µg/mL
same,MIC,A. baumannii DSM 30008,>32 µg/mL
same,IC50,LptAm(Ab)2.0 [2],15.4 ± 1.3 µM
same,Ki,LptAm(Ab)2.0 [2],4.1 ± 0.4 µM
B1,Kd,[3],3.7 µM
B2,IC50,[4],11.8 µM
same,Ki,[4],3.2 µM
